Measurements as given in ChEMBL document CHEMBL4138123, “Design, synthesis and biological evaluation of novel pyrazolochalcones as potential modulators of PI3K/Akt/mTOR pathway and inducers of apoptosis in breast cancer cells” (Eur J Med Chem, 2017).

Experiments:
Type in all cases: functional
NCI-H322M = experiment: Cytotoxicity against human NCI-H322M cells assessed as cell growth at 1 uM after 48 hrs by sulforhodamine B assay relative to control; conditions: read-out: Activity
K562 = experiment: Cytotoxicity against human K562 cells assessed as cell growth at 10 uM after 48 hrs by sulforhodamine B assay relative to control; conditions: K562, 48 h, read-out: Activity
OVCAR-4 = experiment: Cytotoxicity against human OVCAR4 cells assessed as cell growth at 0.01 uM after 48 hrs by sulforhodamine B assay relative to control; conditions: OVCAR-4, 48 h, read-out: Activity
RPMI-8226 = experiment: Cytotoxicity against human RPMI8226 cells assessed as cell growth at 0.1 uM after 48 hrs by sulforhodamine B assay relative to control; conditions: RPMI-8226, 48 h, read-out: Activity
OVCAR-5 [1] = experiment: Cytotoxicity against human OVCAR5 cells assessed as cell growth at 1 uM after 48 hrs by sulforhodamine B assay relative to control; conditions: OVCAR-5, 48 h, read-out: Activity
COLO 205 = experiment: Cytotoxicity against human COLO205 cells assessed as cell growth at 10 uM after 48 hrs by sulforhodamine B assay relative to control; conditions: COLO 205, 48 h, read-out: Activity
HCC 2998 = experiment: Cytotoxicity against human HCC2998 cells assessed as cell growth at 0.01 uM after 48 hrs by sulforhodamine B assay relative to control; conditions: HCC 2998, 48 h, read-out: Activity
OVCAR-5 [2] = experiment: Cytotoxicity against human OVCAR5 cells assessed as cell growth at 0.1 uM after 48 hrs by sulforhodamine B assay relative to control; conditions: OVCAR-5, 48 h, read-out: Activity
OVCAR-3 [3] = experiment: Cytotoxicity against human OVCAR3 cells assessed as cell growth at 1 uM after 48 hrs by sulforhodamine B assay relative to control; conditions: OVCAR-3, 48 h, read-out: Activity
UO-31 = experiment: Cytotoxicity against human UO31 cells assessed as cell growth at 1 uM after 48 hrs by sulforhodamine B assay relative to control; conditions: UO-31, 48 h, read-out: Activity
A498 = experiment: Cytotoxicity against human A498 cells assessed as cell growth at 10 uM after 48 hrs by sulforhodamine B assay relative to control; conditions: A498, 48 h, read-out: Activity
HL-60(TB) = experiment: Cytotoxicity against human HL-60(TB) cells assessed as cell growth at 0.01 uM after 48 hrs by sulforhodamine B assay relative to control; conditions: HL-60, 48 h, read-out: Activity
OVCAR-8 [4] = experiment: Cytotoxicity against human OVCAR8 cells assessed as cell growth at 0.01 uM after 48 hrs by sulforhodamine B assay relative to control; conditions: OVCAR-8, 48 h, read-out: Activity
MDA-MB-468 [5] = experiment: Cytotoxicity against human MDA-MB-468 cells assessed as cell growth at 10 uM after 48 hrs by sulforhodamine B assay relative to control; conditions: MDA-MB-468, 48 h, read-out: Activity
RXF 393 = experiment: Cytotoxicity against human RXF393 cells assessed as cell growth at 100 uM after 48 hrs by sulforhodamine B assay relative to control; conditions: RXF 393, 48 h, read-out: Activity
HCT-15 = experiment: Cytotoxicity against human HCT15 cells assessed as cell growth at 0.01 uM after 48 hrs by sulforhodamine B assay relative to control; conditions: HCT-15, 48 h, read-out: Activity
NCI/ADR-RES = experiment: Cytotoxicity against human NCI/ADR-RES cells assessed as cell growth at 0.01 uM after 48 hrs by sulforhodamine B assay relative to control; conditions: read-out: Activity
UACC-62 = experiment: Cytotoxicity against human UACC62 cells assessed as cell growth at 0.01 uM after 48 hrs by sulforhodamine B assay relative to control; conditions: UACC-62, 48 h, read-out: Activity
OVCAR-8 [6] = experiment: Cytotoxicity against human OVCAR8 cells assessed as cell growth at 0.1 uM after 48 hrs by sulforhodamine B assay relative to control; conditions: OVCAR-8, 48 h, read-out: Activity
MOLT-4 = experiment: Cytotoxicity against human MOLT4 cells assessed as cell growth at 0.1 uM after 48 hrs by sulforhodamine B assay relative to control; conditions: MOLT-4, 48 h, read-out: Activity
TK-10 [7] = experiment: Cytotoxicity against human TK10 cells assessed as cell growth at 1 uM after 48 hrs by sulforhodamine B assay relative to control; conditions: TK-10, 48 h, read-out: Activity
SK-OV-3 = experiment: Cytotoxicity against human SKOV3 cells assessed as cell growth at 10 uM after 48 hrs by sulforhodamine B assay relative to control; conditions: SK-OV-3, 48 h, read-out: Activity
SK-MEL-5 [8] = experiment: Cytotoxicity against human SK-MEL-5 cells assessed as cell growth at 1 uM after 48 hrs by sulforhodamine B assay relative to control; conditions: SK-MEL-5, 48 h, read-out: Activity
NCI-H23 = experiment: Cytotoxicity against human NCI-H23 cells assessed as cell growth at 0.1 uM after 48 hrs by sulforhodamine B assay relative to control; conditions: NCI-H23, 48 h, read-out: Activity
A549 = experiment: Cytotoxicity against human A549/ATCC cells assessed as cell growth at 100 uM after 48 hrs by sulforhodamine B assay relative to control; conditions: A549, 48 h, read-out: Activity
SF-539 = experiment: Cytotoxicity against human SF539 cells assessed as growth inhibition after 48 hrs by sulforhodamine B assay; conditions: SF-539, 48 h
IGROV-1 = experiment: Cytotoxicity against human IGROV1 cells assessed as cell growth at 100 uM after 48 hrs by sulforhodamine B assay relative to control; conditions: IGROV-1, 48 h, read-out: Activity
SK-MEL-28 = experiment: Cytotoxicity against human SK-MEL-28 cells assessed as cell growth at 1 uM after 48 hrs by sulforhodamine B assay relative to control; conditions: SK-MEL-28, 48 h, read-out: Activity
BT-549 = experiment: Cytotoxicity against human BT549 cells assessed as cell growth at 0.1 uM after 48 hrs by sulforhodamine B assay relative to control; conditions: BT-549, 48 h, read-out: Activity
OVCAR-3 [9] = experiment: Cytotoxicity against human OVCAR3 cells assessed as cell growth at 100 uM after 48 hrs by sulforhodamine B assay relative to control; conditions: OVCAR-3, 48 h, read-out: Activity
Hs-578T = experiment: Cytotoxicity against human Hs 578T cells assessed as cell growth at 10 uM after 48 hrs by sulforhodamine B assay relative to control; conditions: read-out: Activity
MDA-MB-468 [10] = experiment: Cytotoxicity against human MDA-MB-468 cells assessed as cell growth at 1 uM after 48 hrs by sulforhodamine B assay relative to control; conditions: MDA-MB-468, 48 h, read-out: Activity
TK-10 [11] = experiment: Cytotoxicity against human TK10 cells assessed as cell growth at 0.01 uM after 48 hrs by sulforhodamine B assay relative to control; conditions: TK-10, 48 h, read-out: Activity
OVCAR-3 [12] = experiment: Cytotoxicity against human OVCAR3 cells assessed as cell growth at 10 uM after 48 hrs by sulforhodamine B assay relative to control; conditions: OVCAR-3, 48 h, read-out: Activity
SK-MEL-5 [13] = experiment: Cytotoxicity against human SK-MEL-5 cells assessed as growth inhibition after 48 hrs by sulforhodamine B assay; conditions: SK-MEL-5, 48 h

Row | SMILES | growth at 1 µM (NCI-H322M) [%] | growth at 10 µM (K562) [%] | growth at 0.01 µM (OVCAR-4) [%] | growth at 0.1 µM (RPMI-8226) [%] | growth at 1 µM (OVCAR-5 [1]) [%] | growth at 10 µM (COLO 205) [%] | growth at 0.01 µM (HCC 2998) [%] | growth at 0.1 µM (OVCAR-5 [2]) [%] | growth at 1 µM (OVCAR-3 [3]) [%] | growth at 1 µM (UO-31) [%] | growth at 10 µM (A498) [%] | growth at 0.01 µM (HL-60(TB)) [%] | growth at 0.01 µM (OVCAR-8 [4]) [%] | growth at 10 µM (MDA-MB-468 [5]) [%] | growth at 100 µM (RXF 393) [%] | growth at 0.01 µM (HCT-15) [%] | growth at 0.01 µM (NCI/ADR-RES) [%] | growth at 0.01 µM (UACC-62) [%] | growth at 0.1 µM (OVCAR-8 [6]) [%] | growth at 0.1 µM (MOLT-4) [%] | also measured
1 | COc1cc(C(=O)/C=C/c2cc(-c3ccc4c(c3)OCO4)n[nH]2)cc(OC)c1OC | 84 | 3 | 97 | 93 | 87 | -47 | 99 | 99 | 87 | 71 | -39 | 99 | 98 | -57 | -92 | 98 | 95 | 96 | 100 | 98 | growth at 1 µM (TK-10 [7]): 109%; growth at 10 µM (SK-OV-3): 19%; growth at 1 µM (SK-MEL-5 [8]): 89%; growth at 0.1 µM (NCI-H23): 93%; growth at 100 µM (A549): -80%; GI50 (SF-539): 1.33 µM; LC50 (concentration killing 50% of cells) (SF-539): 6.65 µM; TGI (SF-539): 2.98 µM; growth at 100 µM (IGROV-1): -90%; growth at 1 µM (SK-MEL-28): 92%; growth at 0.1 µM (BT-549): 97%; growth at 100 µM (OVCAR-3 [9]): -97%; growth at 10 µM (Hs-578T): 10%; growth at 1 µM (MDA-MB-468 [10]): 68%; growth at 0.01 µM (TK-10 [11]): 93%; growth at 10 µM (OVCAR-3 [12]): -73%; GI50 (SK-MEL-5 [13]): 3.32 µM; LC50 (concentration killing 50% of cells) (SK-MEL-5 [13]): 37.7 µM; TGI (SK-MEL-5 [13]): 13.3 µM
2 | COc1ccc(C(=O)/C=C/c2cc(-c3cc(OC)c(OC)c(OC)c3)n[nH]2)cc1 | 93 | -17 | 91 | 90 | 95 | -90 | 101 | 97 | 89 | 77 | -57 | 115 | 95 | -92 | -93 | 99 | 102 | 100 | 98 | 103 | growth at 1 µM (TK-10 [7]): 92%; growth at 10 µM (SK-OV-3): 18%; growth at 1 µM (SK-MEL-5 [8]): 93%; growth at 0.1 µM (NCI-H23): 92%; growth at 100 µM (A549): 1%; GI50 (SF-539): 1.62 µM; LC50 (concentration killing 50% of cells) (SF-539): 5.85 µM; TGI (SF-539): 3.08 µM; growth at 100 µM (IGROV-1): -29%; growth at 1 µM (SK-MEL-28): 101%; growth at 0.1 µM (BT-549): 97%; growth at 100 µM (OVCAR-3 [9]): -69%; growth at 10 µM (Hs-578T): 13%; growth at 1 µM (MDA-MB-468 [10]): 68%; growth at 0.01 µM (TK-10 [11]): 89%; growth at 10 µM (OVCAR-3 [12]): -72%; LC50 (concentration killing 50% of cells) (SK-MEL-5 [13]): 6.1 µM; TGI (SK-MEL-5 [13]): 3.24 µM
3 | COc1cc2c(cc1OC)C(=O)/C(=C/c1cc(-c3ccc4c(c3)OCO4)n[nH]1)C2 | 82 | 2 | 101 | 93 | 84 | -97 | 92 | 92 | 75 | 68 | -84 | 90 | 98 | -87 | -92 | 95 | 101 | 100 | 98 | 99 | growth at 1 µM (TK-10 [7]): 106%; growth at 10 µM (SK-OV-3): -18%; growth at 1 µM (SK-MEL-5 [8]): 92%; growth at 0.1 µM (NCI-H23): 93%; growth at 100 µM (A549): -65%; GI50 (SF-539): 1.27 µM; LC50 (concentration killing 50% of cells) (SF-539): 5.22 µM; TGI (SF-539): 2.57 µM; growth at 100 µM (IGROV-1): -82%; growth at 1 µM (SK-MEL-28): 105%; growth at 0.1 µM (BT-549): 91%; growth at 100 µM (OVCAR-3 [9]): -90%; growth at 10 µM (Hs-578T): -9%; growth at 1 µM (MDA-MB-468 [10]): 54%; growth at 0.01 µM (TK-10 [11]): 88%; growth at 10 µM (OVCAR-3 [12]): -92%; GI50 (SK-MEL-5 [13]): 1.89 µM; LC50 (concentration killing 50% of cells) (SK-MEL-5 [13]): 5.61 µM; TGI (SK-MEL-5 [13]): 3.06 µM
